From patent US8802597B2, “Herbicidal pyrimidines” (E I du Pont de Nemours and Company, priority 2003, dated 2014)
Like-named read-outs stand apart in the source and are kept apart here.

Assays:
Format in all cases: in vivo
[1] = tested on: soybean (Glycine max); assay: Test C pre/postemergence; details: Glycine max; for plant injury at 62 g/ha: 62 g ai/ha; for plant injury at 125 g/ha: 125 g ai/ha; for plant injury at 250 g/ha: 250 g ai/ha; for plant injury at 500 g/ha: 500 g ai/ha; for plant injury at 31 g/ha: 31 g ai/ha
Description: (§1) Seeds or nutlets of plant species selected from bermudagrass (Cynodon dactylon), Surinam grass (Brachiaria decumbens), cocklebur (Xanthium strumarium), corn (Zea mays), crabgrass (Digitaria sanguinalis), woolly cupgrass (Eriochloa villosa), giant foxtail (Setaria faberii), goosegrass (Eleusine indica), johnsongrass (Sorghum halepense), kochia (Kochia scoparia), lambsquarters (Chenopodium album), morningglory (Ipomoea coccinea), eastern black nightshade (Solanum ptycanthum), yellow nutsedge (Cyperus esculentus), pigweed (Amaranthus retroflexus), common ragweed (Ambrosia elatior), soybean (Glycine max), common (oilseed) sunflower (Helianthus annuus), and velvetleaf (Abutilon theophrasti) were planted and treated preemergence with test chemicals formulated in a non-phytotoxic solvent mixture which included a surfactant.
(§2) At the same time, plants selected from these crop and weed species and also winter barley (Hordeum vulgare), blackgrass (Alopecurus myosuroides), canarygrass (Phalaris minor), chickweed (Stellaria media), downy brome (Bromus tectorum), green foxtail (Setaria viridis), Italian ryegrass (Lolium multiflorum), wheat (Triticum aestivum), wild oat (Avena fatua) and windgrass (Apera spica-venti) were treated with postemergence applications of some of the test chemicals formulated in the same manner. Plants ranged in height from 2 to 18 cm (1- to 4-leaf stage) for postemergence treatments. Plant species in the flooded paddy test consisted of rice (Oryza sativa), umbrella sedge (Cyperus difformis), duck salad (Heteranthera limosa) and barnyardgrass (Echinochloa crus-galli) grown to the 2-leaf stage for testing. Treated plants and controls were maintained in a greenhouse for 12 to 14 days, after which time all species were compared to controls and visually evaluated. Plant response ratings, summarized in Table C, are based on a scale of 0 to 100 where 0 is no effect and 100 is complete control. A dash (-) response means no test result.

[2] = tested on: goosegrass (Eleusine indica); assay: Test C pre/postemergence; details: Eleusine indica; for pest or weed control at 62 g/ha: 62 g ai/ha; for pest or weed control at 125 g/ha: 125 g ai/ha; for pest or weed control at 250 g/ha: 250 g ai/ha; for pest or weed control at 500 g/ha: 500 g ai/ha; for pest or weed control at 31 g/ha: 31 g ai/ha
Description: as §1, §2

[3] = tested on: corn (Zea mays); assay: Test C pre/postemergence; details: Zea mays; for Corn plant response rating (crop injury, 0 = no effect, 100 = complete kill) at 62 g/ha: 62 g ai/ha; for Corn plant response rating (crop injury, 0 = no effect, 100 = complete kill) at 125 g/ha: 125 g ai/ha; for Corn plant response rating (crop injury, 0 = no effect, 100 = complete kill) at 250 g/ha: 250 g ai/ha; for Corn plant response rating (crop injury, 0 = no effect, 100 = complete kill) at 500 g/ha: 500 g ai/ha; for Corn plant response rating (crop injury, 0 = no effect, 100 = complete kill) at 31 g/ha: 31 g ai/ha
Description: as §1, §2

[4] = tested on: lambsquarters (Chenopodium album); assay: Test C pre/postemergence; details: Chenopodium album; for pest or weed control at 62 g/ha: 62 g ai/ha; for pest or weed control at 125 g/ha: 125 g ai/ha; for pest or weed control at 250 g/ha: 250 g ai/ha; for pest or weed control at 500 g/ha: 500 g ai/ha; for pest or weed control at 31 g/ha: 31 g ai/ha
Description: as §1, §2

[5] = tested on: chickweed (Stellaria media); assay: Test C postemergence; details: Stellaria media, post-emergence; for pest or weed control at 62 g/ha: 62 g ai/ha, scale 0 to 100 (0 no effect, 100 complete control), read-out: Chickweed plant response rating; for pest or weed control at 125 g/ha: 125 g ai/ha; for pest or weed control at 250 g/ha: 250 g ai/ha
Summary of the method: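 Percent control is a visual rating (0 none, 100 complete) taken against untreated plants after 12 to 14 days of greenhouse growth. Applications were made preemergence to seeded pots and postemergence to plants at the 1- to 4-leaf stage, in a non-phytotoxic surfactant-containing solvent.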

[6] = post-emergence, Postemergence, scale 0 to 100 (0 no effect, 100 complete control), read-out: Soybean plant response rating
[7] = post-emergence, Postemergence, scale 0 to 100, read-out: Plant response rating, Soybean
[8] = pre-emergence, Preemergence, scale 0 to 100, 0 no effect, 100 complete control, read-out: Plant response rating, Soybean
[9] = pre-emergence, Preemergence, scale 0 to 100, read-out: Plant response rating, Soybean
[10] = post-emergence, Postemergence, scale 0 to 100 (0 no effect, 100 complete control), read-out: Goosegrass plant response rating
[11] = post-emergence, Postemergence, scale 0 to 100, read-out: Plant response rating, Goosegrass
[12] = pre-emergence, Preemergence, scale 0 to 100, 0 no effect, 100 complete control, read-out: Plant response rating, Goosegrass
[13] = pre-emergence, Preemergence, scale 0 to 100, read-out: Plant response rating, Goosegrass
[14] = post-emergence, Postemergence, scale 0 to 100 (0 no effect, 100 complete control), read-out: Corn plant response rating
[15] = post-emergence, Postemergence, scale 0 to 100
[16] = pre-emergence, Preemergence, scale 0 to 100, 0 no effect, 100 complete control, read-out: Plant response rating, Corn
[17] = pre-emergence, Preemergence, scale 0 to 100
[18] = post-emergence, Postemergence, scale 0 to 100 (0 no effect, 100 complete control), read-out: Lambsquarters plant response rating
[19] = post-emergence, Postemergence, scale 0 to 100, read-out: Plant response rating, Lambsquarters
[20] = pre-emergence, Preemergence, scale 0 to 100, 0 no effect, 100 complete control, read-out: Plant response rating, Lambsquarters
[21] = pre-emergence, Preemergence, scale 0 to 100, read-out: Plant response rating, Lambsquarters
[22] = scale 0 to 100, read-out: Plant response rating, Chickweed

Row | SMILES | plant injury at 62 g/ha [1, 6] | plant injury at 125 g/ha [1, 6] | plant injury at 250 g/ha [1, 7] | plant injury at 62 g/ha [1, 8] | plant injury at 125 g/ha [1, 9] | plant injury at 250 g/ha [1, 9] | pest or weed control at 62 g/ha [2, 10] | pest or weed control at 125 g/ha [2, 10] | pest or weed control at 250 g/ha [2, 11] | pest or weed control at 62 g/ha [2, 12] | pest or weed control at 125 g/ha [2, 13] | pest or weed control at 250 g/ha [2, 13] | Corn plant response rating (crop injury, 0 = no effect, 100 = complete kill) at 62 g/ha [3, 14] | Corn plant response rating (crop injury, 0 = no effect, 100 = complete kill) at 125 g/ha [3, 14] | Corn plant response rating (crop injury, 0 = no effect, 100 = complete kill) at 250 g/ha [3, 15] | Corn plant response rating (crop injury, 0 = no effect, 100 = complete kill) at 62 g/ha [3, 16] | Corn plant response rating (crop injury, 0 = no effect, 100 = complete kill) at 250 g/ha [3, 17] | pest or weed control at 62 g/ha [4, 18] | pest or weed control at 125 g/ha [4, 18] | pest or weed control at 250 g/ha [4, 19] | also measured
1 | Nc1nc(C2CC2)nc(C(=O)O)c1Br [Compound 8] | 95% | 95% | 100% | 100% | 100% | 100% | 0% | 0% | 45% | 0% | 0% | 35% | 0% | 20% | 70% | 0% | 10% | 75% | 100% | 100% | plant injury at 500 g/ha [1, 7]: 100%; plant injury at 500 g/ha [1, 9]: 100%; pest or weed control at 500 g/ha [2, 11]: 60%; pest or weed control at 500 g/ha [2, 13]: 45%; Corn plant response rating (crop injury, 0 = no effect, 100 = complete kill) at 500 g/ha [3, 15]: 90%; Corn plant response rating (crop injury, 0 = no effect, 100 = complete kill) at 125 g/ha ([3]; pre-emergence, Preemergence, scale 0 to 100, read-out: Plant response rating, Corn): 0%; Corn plant response rating (crop injury, 0 = no effect, 100 = complete kill) at 500 g/ha [3, 17]: 75%; pest or weed control at 500 g/ha [4, 19]: 100%; pest or weed control at 62 g/ha [4, 20]: 0%; pest or weed control at 125 g/ha [4, 21]: 20%; pest or weed control at 250 g/ha [4, 21]: 90%; pest or weed control at 500 g/ha [4, 21]: 100%; pest or weed control at 62 g/ha [5]: 20%; pest or weed control at 125 g/ha [5, 22]: 75%; pest or weed control at 250 g/ha [5, 22]: 95%; pest or weed control at 500 g/ha ([5]; 500 g ai/ha, scale 0 to 100, read-out: Plant response rating, Chickweed): 100%
2 | COC(=O)c1nc(C2CC2)nc(N)c1Br [Compound 2, methyl 6-amino-5-bromo-2-cyclopropyl-4-pyrimidinecarboxylate] | 100% | 100% | 100% | 75% | 90% | 100% | 0% | 0% | 45% | 0% | 0% | 60% | 15% | 20% | 30% | 0% | 0% | 100% | 100% | 100% | plant injury at 31 g/ha ([1]; post-emergence, Postemergence, read-out: Plant response rating (scale of 0 to 100), Soybean): 100%; plant injury at 31 g/ha [1, 8]: 15%; pest or weed control at 31 g/ha ([2]; post-emergence, Postemergence, read-out: Plant response rating (scale of 0 to 100), Goosegrass): 0%; pest or weed control at 31 g/ha [2, 12]: 0%; Corn plant response rating (crop injury, 0 = no effect, 100 = complete kill) at 31 g/ha ([3]; post-emergence, Postemergence, read-out: Plant response rating (scale of 0 to 100), Corn): 15%; Corn plant response rating (crop injury, 0 = no effect, 100 = complete kill) at 31 g/ha [3, 16]: 0%; pest or weed control at 31 g/ha ([4]; post-emergence, Postemergence, read-out: Plant response rating (scale of 0 to 100), Lambsquarters): 100%; pest or weed control at 31 g/ha [4, 20]: 90%; pest or weed control at 62 g/ha [4, 20]: 100%; pest or weed control at 125 g/ha [4, 21]: 100%; pest or weed control at 250 g/ha [4, 21]: 100%; pest or weed control at 31 g/ha ([5]; 31 g ai/ha, read-out: Plant response rating (scale of 0 to 100), Chickweed): 60%; pest or weed control at 62 g/ha [5]: 65%; pest or weed control at 125 g/ha [5, 22]: 75%; pest or weed control at 250 g/ha [5, 22]: 95%
